“Also recorded” adds a separate entry of the source.
How the values were obtained:
[1] = Microsomal stability, pooled rat liver microsomes; format: in vitro ADME; details: 1 μM, 37° C., 60 min
Protocol: (§1) Microsomal stability of compound (II-4) (1 μM) was assessed in pooled liver microsomes (human, mouse, and rat) (FIG. 7). Briefly, compound (II-4) was incubated in duplicate with microsomes at 37° C. Reactions contained microsomal protein in 100 mM potassium phosphate, 2 mM NADPH, 3 mM MgCl2, pH 7.4. NADPH was omitted to detect NADPH-free degradation. At 60 minutes, the reaction was stopped by adding ice-cold methanol containing internal standard. Samples were centrifuged to remove precipitated protein, and the supernatants were analyzed by LC/MS/MS to quantitate the remaining parent.
as §1, with “23).” for “7).”, “min,” for “minutes,”, “(+” for “containing”, “standard).” for “standard.”

UM tumor cell lines = test: Total cell numbers in UM cultures; format: cell-based, human
VLA-4 = VLA-4 protein levels by flow cytometry in UM cells; format: cell-based, human; details: UM cells after treatment
Protocol: Harvested cells were washed and counted. 1.0×10^6 cells were labeled with the following cell surface antibodies: FITC anti-CD54 (ICAM-1, clone HA58, BioLegend), PE anti-CD102 (ICAM-2, clone CBR-IC2/2, BioLegend), PE-Cy7 anti-CD49d (VLA-4, clone 9F10, BioLegend), APC anti-CD106 (VCAM-1, clone STA, BioLegend), PerCP-Cy5.5 anti-CD166 (ALCAM, clone 3A6, BioLegend), Biotin anti-CD326 (EpCAM, clone 1B7, BD Biosciences) using manufacturer's conditions. Cells were incubated in antibody cocktail for 30 minutes on ice followed by two washes with PBS/2% FBS. Second-labeling step was performed using Brilliant Violet 421 Streptavidin (bv421-SA, BioLegend) for 30 minutes on ice followed by two washes as before. […]
Next, it was investigated if reduced numbers were a consequence of a reduction in UM cells proliferation. Cell cultures in the presence or absence of compound (II-4) were analyzed by follow cytometry for cytoskeletal fragmentation and proliferation. […]
FIG. 15: The paxillin inhibitor Compound (II-4) selectively affects cellular proliferation of primary UM cells that become metastatic. […] Unlabeled cells were used to control fluorescence. […] B. Quantitation of experiment +/−SD including primary UM that becomes metastatic (Mel 270), metastatic (OMM 2.1) and primary (92.1) UM cells. *P=0.0007 and **P=0.0005. […] Quantitation of VLA-4 protein levels +/−SD from n=3. […]

[2] = test system: retinal endothelial cells (REC); test: VEGF-induced REC proliferation, WST-1 metabolic assay; format: cell-based, human
Protocol: To investigate the potential of compound (II-4) affecting the proliferative capacity of RECs treated with VEGF, proliferation was measured using the metabolic assay based on the tetrazolium salt, WST-1. […] To rule out the possibility that this observation was related to cytotoxicity, RECs were incubated with a high concentration of compound (II-4) (1 μM) for 24 hours. Cells were harvested and apoptosis measured with Annexin-V/Propidium Iodide (PI) staining and analyzed using flow cytometry.
FIG. 18: REC Proliferation and Flow cytometry analysis of apoptosis in REC. A) VEGF-induced cellular proliferation was assessed using the WST-1 metabolic assay. […] (*P<0.0001). Nuclei were stained with DRAQ5 and imaged to show trend of decreasing proliferation. B) Apoptosis was measured using Annexin V/PI staining Compound (II-4) (1 μM) appears to be non-cytotoxic to retinal endothelial cells after 24 hour incubation (n≈10,000 cells).
FIG. 21: REC Proliferation. […] (*, # P<0.001; Mean±SD, N=8/group).

[3] = test system: retinal endothelial cells (REC); test: Annexin V/PI apoptosis analysis by flow cytometry in REC; format: cell-based, human
Protocol: Harvested cells were washed twice with cold PBS/2% FBS. Pelleted cells were resuspended in Annexin V Binding Buffer (BioLegend, San Diego, Calif.) at a concentration of 5.0×10^6 cells/mL following manufacturer's instructions. 5.0×10^5 cells (100 μL) were labeled with 5 μL of FITC Annexin V and 10 μL of Propidium Iodide (PI) solution. Cells were vortexed gently and incubated for 15 minutes at RT in dark. 300 μL of Annexin V Binding Buffer were added to each sample tube and analyzed in BD LSRII Flow Cytometry Analyzer (BD Biosciences, San Jose, Calif.). Apoptotic cells were defined as Annexin V^+PI^neg while necrotic cells are defined as Annexin V^+PI^+. […]
To investigate the potential of compound (II-4) affecting the proliferative capacity of RECs treated with VEGF, proliferation was measured using the metabolic assay based on the tetrazolium salt, WST-1. […] Cells were harvested and apoptosis measured with Annexin-V/Propidium Iodide (PI) staining and analyzed using flow cytometry.
FIG. 18: REC Proliferation and Flow cytometry analysis of apoptosis in REC. A) VEGF-induced cellular proliferation was assessed using the WST-1 metabolic assay. […] B) Apoptosis was measured using Annexin V/PI staining Compound (II-4) (1 μM) appears to be non-cytotoxic to retinal endothelial cells after 24 hour incubation (n≈10,000 cells).

## COc1cc(C2OC(=O)Nc3c2ccc2ccccc32)cc(OC)c1OC (stereo not shown) [compound II-4]
[1]
  microsomal stability (metabolism by cytochrome P-450 enzymes): rapidly metabolized
UM tumor cell lines
  total cell numbers compared to untreated cultures: reduction in total cell numbers
VLA-4
  VLA-4 protein levels: does not affect VLA-4 protein
[2]; Compound (II-4) (500 nM), LY294002 (1004), SU6656 (104), U0126 (104) [sic]
  VEGF-induced REC proliferation (FIG. 21): inhibited
[2]; increasing concentrations of compound (II-4)
  VEGF-induced cellular proliferation (WST-1): significant decrease; also recorded: significantly reduces cellular proliferation
[3]; 1 μM for 4-hrs
  spontaneous apoptosis in REC (PI and Annexin V): did not cause an increase in spontaneous apoptosis
[3]; 1 μM for 24 hours
  apoptosis / cytotoxicity in REC (Annexin-V/PI): No evidence of apoptosis was detected; also recorded: non-cytotoxic

From US9834525B2, “Inhibitors of paxillin function and related compositions and methods” (UNIVERSITY OF TENNESSEE RESEARCH FOUNDATION, priority 2015, dated 2017)
